According to the Kinase Knowledgebase extract (Sharma et al. 2016):

Target: PIK3CG (human) (UniProt P48736)
Assay: Assessment of PIK3CG Kinase Activity

PIK3CG (human), sequence (P48736 whole entry, looked up): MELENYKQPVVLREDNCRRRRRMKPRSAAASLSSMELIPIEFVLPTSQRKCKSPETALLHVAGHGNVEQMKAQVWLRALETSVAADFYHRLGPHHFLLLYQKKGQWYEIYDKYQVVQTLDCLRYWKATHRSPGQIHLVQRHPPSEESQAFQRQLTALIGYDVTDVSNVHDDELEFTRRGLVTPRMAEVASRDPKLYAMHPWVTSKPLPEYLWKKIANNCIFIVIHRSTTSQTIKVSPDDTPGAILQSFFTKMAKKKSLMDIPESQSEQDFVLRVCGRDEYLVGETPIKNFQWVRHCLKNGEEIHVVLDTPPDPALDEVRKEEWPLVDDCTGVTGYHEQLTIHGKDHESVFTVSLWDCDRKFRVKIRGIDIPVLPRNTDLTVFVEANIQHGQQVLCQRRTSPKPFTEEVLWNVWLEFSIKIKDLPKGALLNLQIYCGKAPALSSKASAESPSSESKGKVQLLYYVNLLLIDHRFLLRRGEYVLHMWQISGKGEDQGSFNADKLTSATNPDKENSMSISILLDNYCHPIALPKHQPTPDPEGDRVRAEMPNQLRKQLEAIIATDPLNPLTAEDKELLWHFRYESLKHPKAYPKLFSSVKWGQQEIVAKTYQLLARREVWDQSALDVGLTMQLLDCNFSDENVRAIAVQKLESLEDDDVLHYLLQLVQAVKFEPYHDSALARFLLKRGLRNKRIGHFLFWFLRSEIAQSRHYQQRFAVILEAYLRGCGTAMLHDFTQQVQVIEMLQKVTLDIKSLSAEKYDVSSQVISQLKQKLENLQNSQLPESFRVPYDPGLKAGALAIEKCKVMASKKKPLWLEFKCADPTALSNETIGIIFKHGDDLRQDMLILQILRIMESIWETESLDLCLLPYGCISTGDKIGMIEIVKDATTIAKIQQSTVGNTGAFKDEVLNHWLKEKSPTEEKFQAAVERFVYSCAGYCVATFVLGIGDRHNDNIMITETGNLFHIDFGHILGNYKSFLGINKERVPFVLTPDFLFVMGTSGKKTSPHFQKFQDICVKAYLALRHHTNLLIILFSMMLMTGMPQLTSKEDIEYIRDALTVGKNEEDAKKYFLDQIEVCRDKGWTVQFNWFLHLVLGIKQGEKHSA

IC50 [nM] | SMILES
< 800 | C#CCNC(=O)Cc1ccc(-n2ncc3c2-c2sc(NC(C)=O)nc2CC3)cc1
< 800 | CC(=O)Nc1nc2c(s1)-c1nc(NC3CCN(C)CC3)ncc1CC2
< 800 | C#CCNc1ncc2c(n1)-c1sc(NC(C)=O)nc1CC2
< 800 | CC(=O)Nc1nc2c(s1)-c1c(cnn1-c1ccc(C(=O)N[C@@H]3CCc4nc(N)sc4C3)cc1)CC2
< 800 | CC(=O)Nc1nc2c(s1)-c1c(cnn1-c1ccc(CC(=O)NCc3nc4ccccc4n3C)cc1)CC2
< 800 | CC(=O)Nc1nc2c(s1)-c1c(cnn1-c1ccc(C(=O)N[C@@H](Cc3ccccc3)C(N)=O)cc1Cl)CC2
< 800 | CC(=O)Nc1nc2c(s1)-c1nn(-c3ccc(C(=O)NC4CCN(C)CC4)cc3Cl)c(-c3ccco3)c1CC2
< 800 | CNC(=O)c1nn(-c2ccccc2Cl)c2c1CCc1nc(NC(C)=O)sc1-2
< 800 | CC(=O)Nc1nc2c(s1)-c1c(cnn1-c1ccc(C(=O)N[C@H](Cc3cc4ccccc4[nH]3)C(N)=O)cc1Cl)CC2
< 800 | CC(=O)Nc1nc2c(s1)-c1c(cnn1-c1cccc(C(=O)O)c1)CC2
< 800 | CC(=O)Nc1nc2c(s1)-c1nc(C3CCCCC3)ncc1CC2
< 800 | CC(=O)Nc1nc2c(s1)-c1c(c(-c3cn(C)cn3)nn1-c1ccccc1Cl)CC2
< 800 | CC(=O)Nc1nc2c(s1)-c1c(c(-c3cccnc3)nn1-c1ccccc1Cl)CC2
< 800 | CC(=O)Nc1nc2c(s1)-c1c(cnn1-c1ccccc1)CC2
< 800 | CC(=O)Nc1nc2c(s1)-c1c(c(-c3ccccn3)nn1-c1ccccc1C(F)(F)F)CC2
< 800 | CC(=O)Nc1nc2c(s1)-c1c(cnn1-c1ccc(CC(=O)N3CCCC(C(N)=O)C3)cc1)CC2 (stereo not drawn)
< 800 | CNS(=O)(=O)c1ccc(-n2ncc3c2-c2sc(NC(C)=O)nc2CC3)cc1
< 800 | CC(=O)Nc1nc2c(s1)-c1nc(CCc3ccccc3)ncc1CC2
< 800 | CC(=O)Nc1nc2c(s1)-c1nc(SCCCN(C)C)ncc1CC2
< 800 | CC(=O)Nc1nc2c(s1)-c1c(c(C(=O)NCCO)nn1-c1ccccc1)CC2
< 800 | CC(=O)Nc1nc2c(s1)-c1nn(C(=O)c3ccccc3Cl)cc1CC2
< 800 | COCc1nn(-c2ccccc2)c2c1CCc1nc(NC(C)=O)sc1-2
< 800 | CC(=O)Nc1nc2c(s1)-c1c(cnn1-c1ccc(C(=O)NC3CCCC3)cc1)CC2
< 800 | CC(=O)Nc1nc2c(s1)-c1c(cnn1-c1ccccn1)CC2
< 800 | CC(=O)Nc1nc2c(s1)-c1c(cnn1-c1ccc(CC(=O)O)cc1)CC2

IC50 [nM] | SMILES
< 800 | CC(=O)Nc1nc2c(s1)-c1c(cnn1-c1ccc(C(=O)N3C[C@@H](C)O[C@@H](C)C3)cc1Cl)CC2
< 800 | CC(=O)Nc1nc2c(s1)-c1c(c(-c3ccccc3)nn1-c1ccccc1C(F)(F)F)CC2
< 800 | CC(=O)Nc1nc2c(s1)-c1nn(-c3ccccc3Cl)c(-c3ccoc3)c1CC2
< 800 | CC(=O)Nc1nc2c(s1)-c1nc(-c3ccccc3C)ncc1CC2
< 800 | CC(=O)Nc1nc2c(s1)-c1c(c(-c3ccccc3)nn1-c1ccccc1Br)CC2
< 800 | CC(=O)Nc1nc2c(s1)-c1c(cnn1-c1ccc(C(=O)NCc3ccnn3C)cc1)CC2
< 800 | CC(=O)Nc1nc2c(s1)-c1c(cnn1C(=O)c1ccccc1Cl)CC2
< 800 | CC(=O)Nc1nc2c(s1)-c1c(cnn1-c1ccc(C(=O)N[C@@H](C(N)=O)C(C)C)cc1Cl)CC2
< 800 | CC(=O)Nc1nc2c(s1)-c1c(cnn1C(=O)C1CC1)CC2
< 800 | CCN(CCO)C(=O)c1nn(-c2ccccc2)c2c1CCc1nc(NC(C)=O)sc1-2
< 800 | CC(=O)Nc1nc2c(s1)-c1c(cnn1-c1ccc(C(=O)N[C@H]3CC[C@@H](N4CCCCC4)CC3)cc1)CC2
< 800 | CC(=O)Nc1nc2c(s1)-c1c(cnn1-c1ccc(C(=O)N[C@@H](Cc3cccc(Cl)c3)C(N)=O)cc1Cl)CC2
< 800 | CC(=O)Nc1nc2c(s1)-c1c(cnn1-c1ccccc1F)CC2
< 800 | CC(=O)Nc1nc2c(s1)-c1c(cnn1-c1ccc(C(=O)N[C@@H](CCCCN)C(N)=O)cc1Cl)CC2
< 800 | COCc1nn(-c2ccc(C(=O)N(C)Cc3ccncc3)cc2Cl)c2c1CCc1nc(NC(C)=O)sc1-2
< 800 | CC(=O)Nc1nc2c(s1)-c1c(cnn1-c1ccccc1C(F)(F)F)C2
< 800 | CC(=O)Nc1nc2c(s1)-c1c(c([C@H]3CCCO3)nn1-c1ccccc1)CC2
< 800 | CCCC(=O)n1cc2c(n1)-c1sc(NC(C)=O)nc1CC2
< 800 | CC(=O)Nc1nc2c(s1)-c1c(cnn1-c1ccc(C(=O)Nc3ccc(C4CCN(C)CC4)cc3)cc1Cl)CC2
< 800 | CC(=O)Nc1nc2c(s1)-c1c(cnn1-c1cccc(Cl)c1)CC2
< 800 | CC(=O)Nc1nc2c(s1)-c1c(cnn1-c1ccc(C(=O)N[C@H]3CC[C@H](N4CCN(S(C)(=O)=O)CC4)CC3)cc1)CC2
< 800 | CCN1CCCC(NC(=O)Cc2ccc(-n3ncc4c3-c3sc(NC(C)=O)nc3CC4)cc2)C1 (stereo not drawn)
< 800 | COCc1nn(-c2ccccc2Br)c2c1CCc1nc(NC(C)=O)sc1-2
< 800 | CC(=O)Nc1nc2c(s1)-c1nc(N3CCCC(C)(C)C3)ncc1CC2
< 800 | CC(=O)Nc1nc2c(s1)-c1c(c(-c3cn(C)cn3)nn1-c1ccccc1)CC2

IC50 [nM] | SMILES
< 800 | CC(=O)Nc1nc2c(s1)-c1c(cnn1-c1ccc(C(=O)N3CCC(N4CCCCC4)CC3)cc1)CC2
< 800 | CC(=O)Nc1nc2c(s1)-c1c(cnn1-c1ccc(Cl)cc1Cl)CC2
< 800 | CC(=O)Nc1nc2c(s1)-c1c(cnn1-c1ccc(C(=O)N3CCS(=O)(=O)CC3)cc1)CC2
< 800 | CCc1ccccc1-n1ncc2c1-c1sc(NC(C)=O)nc1CC2
< 800 | C#CCN(C)C(=O)c1ccc(-n2ncc3c2-c2sc(NC(C)=O)nc2CC3)cc1
< 800 | CC(=O)Nc1nc2c(s1)-c1nc(-c3ccc(C(N)=O)cc3)ncc1CC2
< 800 | CC(=O)Nc1nc2c(s1)-c1c(c(C(F)(F)F)nn1-c1ccccc1)CC2
< 800 | CC(=O)Nc1nc2c(s1)-c1c(cnn1-c1ccc(C(=O)NCCc3cccnc3)cc1)CC2
< 800 | CC(=O)Nc1nc2c(s1)-c1c(cnn1-c1ccc(C(=O)NCC(F)(F)F)cc1)CC2
< 800 | CCSC(=O)Nc1nc2c(s1)-c1c(cnn1-c1ccccc1)CC2
< 800 | CC(=O)Nc1nc2c(s1)-c1nc(C(C)C)ncc1CC2
< 800 | COC(=O)Nc1nc2c(s1)-c1c(cnn1-c1ccccc1)CC2
< 800 | CNC(=O)c1ccc(-c2ncc3c(n2)-c2sc(NC(C)=O)nc2CC3)cc1
< 800 | CC(=O)Nc1nc2c(s1)-c1c(cnn1-c1ccc(C(=O)NCCN3CCOCC3)cc1)CC2
< 800 | CC(=O)Nc1nc2c(s1)-c1c(cnn1-c1ccc(C(=O)NCc3nc4ccccc4[nH]3)cc1)CC2
< 800 | CC(=O)Nc1nc2c(s1)-c1c(cnn1-c1ccc(C(=O)NC(CN3CCOCC3)CN3CCOCC3)cc1)CC2
< 800 | CN(C)CCNC(=O)Nc1nc2c(s1)-c1c(cnn1-c1ccccc1)CC2
< 800 | CCN(CCO)C(=O)c1ccc(-n2ncc3c2-c2sc(NC(C)=O)nc2CC3)cc1
< 800 | CC(=O)Nc1nc2c(s1)-c1c(cnn1-c1ccc(C(=O)NCCC3CCCN3C)cc1)CC2 (stereo not drawn)
< 800 | CC(=O)Nc1nc2c(s1)-c1c(cnn1-c1ccc(C)cc1)CC2
< 800 | CC(=O)Nc1nc2c(s1)-c1c(c(-c3c[nH]cn3)nn1-c1ccccc1C(F)(F)F)CC2
< 800 | CC(=O)Nc1ncc2c(n1)-c1sc(NC(C)=O)nc1CC2
< 800 | CNC(=O)Nc1nc2c(s1)-c1nc(N(C)C)ncc1CC2
< 800 | CC(=O)Nc1nc2c(s1)-c1c(cnn1-c1c(Cl)cccc1Cl)CC2
< 800 | NCC#CCNC(=O)Nc1nc2c(s1)-c1c(cnn1-c1ccccc1)CC2

IC50 [nM] | SMILES
< 800 | CC(=O)Nc1nc2c(s1)-c1c(cnn1-c1ccc(CC(=O)N3CCN(C(C)=O)CC3)cc1)CC2
< 800 | COc1cccc(-c2ncc3c(n2)-c2sc(NC(C)=O)nc2CC3)c1
< 800 | CC(=O)Nc1nc2c(s1)-c1c(cnn1-c1ccc(S(=O)(=O)O)cc1)CC2
< 800 | CC(=O)Nc1nc2c(s1)-c1c(cnn1-c1ccc(C(=O)N[C@H]3CC[C@@H](N4CCN(c5ccccc5)CC4)CC3)cc1)CC2
< 800 | CC(=O)Nc1nc2c(s1)-c1c(c(-c3c[nH]cn3)nn1-c1ccccc1Cl)CC2
< 800 | C=C1CCN(C(=O)c2ccc(-n3ncc4c3-c3sc(NC(C)=O)nc3CC4)cc2)CC1
< 800 | CC(=O)Nc1nc2c(s1)-c1c(c(-c3ccco3)nn1-c1ccccc1C(F)(F)F)CC2
< 800 | CC(C)(C)NC(=O)NCC#CCNC(=O)Nc1nc2c(s1)-c1c(cnn1-c1ccccc1)CC2
< 800 | CC(=O)Nc1nc2c(s1)-c1c(cnn1-c1c(Cl)cccc1Cl)C2
< 800 | NCC(=O)Nc1nc2c(s1)-c1c(cnn1-c1ccccc1)CC2
< 800 | CC(=O)Nc1nc2c(s1)-c1nc(N3CCCC(CNC(C)C)C3)ncc1CC2 (stereo not drawn)
< 800 | CC(=O)Nc1nc2c(s1)-c1c(cnn1-c1ccc(C(=O)NCC3OCCO3)cc1)CC2
< 800 | CC(=O)Nc1nc2c(s1)-c1c(cnn1-c1ccc(C(=O)N[C@@H](CCCNC(=N)N)C(N)=O)cc1Cl)CC2
< 800 | CC(=O)Nc1nc2c(s1)-c1c(cnn1-c1ccc(C(=O)Nc3ccc(NC(C)(C)CN(C)C)cc3)cc1)CC2
< 800 | CC(=O)Nc1nc2c(s1)-c1c(cnn1-c1ccc(C(=O)NCCN3CCNC3=O)cc1)CC2
< 800 | CC(=O)Nc1nc2c(s1)-c1c(cnn1-c1ccc(C(=O)NCc3cccc(N4CCNC4=O)c3)cc1)CC2
< 800 | CC(=O)Nc1nc2c(s1)-c1c(cnn1-c1ccc(C(=O)N3CCCCC3CO)cc1)CC2 (stereo not drawn)
< 800 | CC(=O)Nc1nc2c(s1)-c1c(cnn1-c1ccccc1C(F)(F)F)CC2
< 800 | CC(=O)Nc1nc2c(s1)-c1nn(C(=O)c3ccccc3)cc1CC2
< 800 | CC(=O)Nc1nc2c(s1)-c1c(c([C@H]3CCCO3)nn1-c1ccc(C(=O)NCc3ccncc3)cc1Cl)CC2
< 800 | CC(=O)Nc1nc2c(s1)-c1c(cnn1-c1ccc(C(=O)N[C@H]3CCc4nc(N)sc4C3)cc1Cl)CC2
< 800 | CC(=O)Nc1nc2c(s1)-c1c(cnn1-c1ccc(C(=O)N(C)Cc3ccccc3)cc1)CC2

SMILES | IC50 [nM]
CCN(CC)CC1CCCCN1C(=O)Cc1ccc(-n2ncc3c2-c2sc(NC(C)=O)nc2CC3)cc1 (stereo not drawn) | < 800
